Earlier results on 1 compound are cited in US20220160669A1, “PARENTERAL NUTRITION FORMULATION” (BAXTER INTERNATIONAL INC., priority 2020, published 2022).

Molecules are shown by their SMILES.

The conditions of the series: human, in vivo; cited from earlier work.

In the case of `CCCC(=O)[O-].[Na+]` [sodium butyrate], the clearance rate was 83 ± 12 mL/min/kg.
